According to patent US20230272012A1, “PEPTIDES AND METHODS OF USE” (REALTA LIFE SCIENCES, INC., priority 2020, published 2023):
“Also recorded” adds a separate entry of the source. Bridge positions count the residues as written; N and C are the ends. Square brackets hold non-standard residues; d marks the D form. Ends that are not written are not given here. Peptide text beside a SMILES is read from it. R8 = C=CCCCCCC[C@@](C)(N)C(=O)O; S5 = C=CCCC[C@](C)(N)C(=O)O; Sar = CNCC(=O)O

Assays:
PD-1/PD-L1 interaction = target: T1, PD-1/PD-L1 interaction (Homo sapiens, UniProt Q15116+Q9NZQ7); test: PD-1/PD-L1 Blockade Bioassay (Promega); assay type: cell-based; details: increasing peptide concentrations
T1 construct: host or cells: PD-1 effector cells; PD-L1 aAPC/CHO-K1 cells
Method in brief: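 PD-1 effector cells co-cultured with PD-L1 aAPC/CHO-K1 cells, with or without increasing concentrations of peptides; anti-PD-1 antibody as positive control. Blockade of PD-1/PD-L1 restores TCR signalling, read as NFAT-driven luciferase luminescence.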

[1] = test system: antibody-initiated complement activation (human O sera and AB red blood cells); test: ABO incompatibility hemolytic assay of complement activity (CH50-type); assay type: cell-based; details: for inhibition of complement activation in vitro, dose response: human AB red blood cells, human O plasma, increasing amounts of peptide
Method in brief: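 Type AB human erythrocytes (5.0×10^7) incubated with 15% (final) type O human serum and 0.5 mM peptide in GVBS^++, 1 h at 37 °C. Hemolysis read as supernatant absorbance at 412 nm, expressed as percent of the serum-plus-RBC positive control; means of three independent experiments ±SEM.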

C1q = target: T2, C1q (Homo sapiens, UniProt P02745+P02746+P02747); test: C1q binding ELISA-type assay; details: for binding to C1q: plate-bound C1q, antibody detection
T2 construct: purchased Complement Technology (Tyler, Tex.)
Method: The C1q binding assay was performed as previously described. Briefly, an Immunlon-2 HB ELISA plate was coated with 1 μg/ml C1q in bicarbonate buffer overnight at 4° C. The plates were washed with PBS-T (phosphate buffered saline+0.1% Tween) and then blocked with 1% gelatin/PBS for 2 hours at room temperature. After washing, the plates were incubated with the peptides starting at 2.5 mg/ml and then serially diluted in 1% gelatin/PBS for 1 hour at room temperature followed by washing. Plates were then probed with rabbit antibody raised against the lead peptide […] (SEQ ID NO: 2) that lacked PEGylation at 1:1000 in 1% gelatin/PBS for 1 hour at room temperature followed by a goat anti-rabbit HRP (Sigma Aldrich, St Louis, Mo.) at 1:1,000 in 1% gelatin/PBS for 1 hour at room temperature with a washing step in between. After addition of TMB substrate solution to the wells, the reaction was stopped using 1N H2SO4, and the plate read on a BioTek Synergy HT plate reader at 450 nm.
The astrovirus capsid protein and the PIC1 molecules derived from it inhibit classical complement pathway activation by binding to the pattern recognition molecule C1q. The inventors next tested peptide variant binding to C1q in an ELISA-type assay in which C1q is used as the capture substrate and bound peptide detected with a rabbit polyclonal antibody against the peptide portion of PA-dPEG24 ([…]-d24; SEQ ID NO: 3). Binding curves were derived for the stapled and D-amino acid peptides based on the PA-I8Sar and PA-C9Sar (FIG. 6A-6D) backbone, from which half-maximal binding concentrations were calculated (FIGS. 2A and B, respectively). […] For the D-amino acid variants, all peptides in which C1q binding was detected, had variable but increased binding to C1q compared to PA-I8Sar (FIG. 2A). For the peptides based on the PA-C9Sar backbone, with the exception of PA-0148, C1q was bound to the same degree or greater than the parent peptide (FIG. 2B).
The inventors also assessed the ability of RLS-0127* and RLS-0133* to inhibit MPO activity as determined by inhibition of oxidation of TMB in a plate-based assay. […] Additionally, the inventors assessed the ability of RLS-0127* and RLS-0133* to bind C1q in a plate-based assay in which C1q is coated on the plate and increasing amounts of the peptides are added, followed by primary antibody to the peptides and secondary antibody conjugated to HRP. The plate was then incubated with TMB to give a […] signal that is detected at a wavelength of 450 nm in a plate reader.

T2 sequence (P02745 23-245): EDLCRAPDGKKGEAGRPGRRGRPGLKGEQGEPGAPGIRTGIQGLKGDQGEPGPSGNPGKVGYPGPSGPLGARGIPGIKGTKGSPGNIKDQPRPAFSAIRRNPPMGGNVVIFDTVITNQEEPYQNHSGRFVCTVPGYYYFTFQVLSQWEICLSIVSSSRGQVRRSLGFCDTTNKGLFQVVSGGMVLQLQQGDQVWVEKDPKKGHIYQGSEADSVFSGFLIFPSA
T2 sequence (P02746 28-253): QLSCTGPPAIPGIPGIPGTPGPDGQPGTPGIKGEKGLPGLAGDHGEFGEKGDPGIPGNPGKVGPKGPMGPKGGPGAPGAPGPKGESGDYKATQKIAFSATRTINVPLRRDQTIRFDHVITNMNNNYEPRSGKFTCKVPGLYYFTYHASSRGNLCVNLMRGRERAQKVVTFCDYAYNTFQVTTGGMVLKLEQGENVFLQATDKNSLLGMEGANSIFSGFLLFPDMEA
T2 sequence (P02747 29-245): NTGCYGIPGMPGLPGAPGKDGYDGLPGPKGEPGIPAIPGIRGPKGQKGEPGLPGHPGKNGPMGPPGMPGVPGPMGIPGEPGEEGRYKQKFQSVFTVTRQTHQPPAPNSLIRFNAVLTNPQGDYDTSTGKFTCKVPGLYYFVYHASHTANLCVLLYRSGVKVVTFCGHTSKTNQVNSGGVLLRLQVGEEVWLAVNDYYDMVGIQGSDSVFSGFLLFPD
T1 sequence (Q15116 25-288): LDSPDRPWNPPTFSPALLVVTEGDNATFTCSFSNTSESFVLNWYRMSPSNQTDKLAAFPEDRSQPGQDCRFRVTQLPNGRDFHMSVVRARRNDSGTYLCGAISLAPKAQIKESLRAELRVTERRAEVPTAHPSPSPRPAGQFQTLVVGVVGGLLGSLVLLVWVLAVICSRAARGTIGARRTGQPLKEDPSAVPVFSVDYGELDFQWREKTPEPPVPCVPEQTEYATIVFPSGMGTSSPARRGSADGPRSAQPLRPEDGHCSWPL
T1 sequence (Q9NZQ7 19-290): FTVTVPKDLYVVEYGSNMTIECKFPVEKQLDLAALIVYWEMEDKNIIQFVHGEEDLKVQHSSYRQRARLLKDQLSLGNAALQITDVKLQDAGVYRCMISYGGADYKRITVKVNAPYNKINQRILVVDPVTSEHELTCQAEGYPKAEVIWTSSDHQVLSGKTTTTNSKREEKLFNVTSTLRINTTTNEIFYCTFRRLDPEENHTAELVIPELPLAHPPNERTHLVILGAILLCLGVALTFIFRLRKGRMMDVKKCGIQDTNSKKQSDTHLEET

Row | Compound | inhibition of PD-1/PD-L1 inhibitory signaling (luminescence) (PD-1/PD-L1 interaction) | inhibition of ABO incompatible hemolysis compared to PA-I8Sar ([1]; peptide 0.8 mg/ml (~0.5 mM)) | binding to C1q compared with PA-I8Sar (C1q; half-maximal binding from binding curves) | inhibition of PD-1/PD-L1 inhibitory signaling (luminescence) (PD-1/PD-L1 interaction; listed as RLS-0117) | binding to C1q (C1q) | inhibition of complement activation in vitro, dose response [1]
1 | CC[C@H](C)[C@H](N)C(=O)N[C@]1(C)CCCCCCC=CCCC[C@@](C)(C(=O)N[C@@H](CS)C(=O)N[C@@H](CCC(N)=O)C(=O)N[C@@H](CCC(=O)O)C(=O)N[C@@H](CCCNC(=N)N)C(=O)N[C@@H](C)C(=O)N[C@@H](C)C(=O)O)NC(=O)CN(C)C(=O)[C@@H]2CCCN2C(=O)[C@H](CCC(=O)O)NC(=O)[C@H](CC(C)C)NC(=O)[C@H]([C@@H](C)CC)NC(=O)[C@H](CC(C)C)NC1=O [PA-0115, IR8LILEP(Sar)S5CQERAA] (H-I[R8]LILEP[Sar][S5]CQERAA-OH; staple 2-9) | did not show PD-1/PD-L1 inhibitory activity | enhanced activity | markedly increased binding to C1q; also recorded: enhanced activity |  |  | 
2 | CC[C@H](C)[C@H](N)C(=O)N[C@@H](C)C(=O)N[C@@H](CC(C)C)C(=O)N[C@H](C(=O)N[C@@H](CC(C)C)C(=O)N[C@@H](CCC(=O)O)C(=O)N1CCC[C@H]1C(=O)N(C)CC(=O)N[C@@H](CS)C(=O)N[C@@]1(C)CCCC=CCCC[C@@](C)(C(=O)N[C@@H](C)C(=O)O)NC(=O)[C@H](CCCNC(=N)N)NC(=O)[C@H](CCC(=O)O)NC(=O)[C@H](CCC(N)=O)NC1=O)[C@@H](C)CC [PA-0117, IALILEP(Sar)CS5QERS5A] (H-IALILEP[Sar]C[S5]QER[S5]A-OH; staple 10-14) |  |  |  | increase in luminescence indicative of inhibition of PD-1/PD-L1 inhibitory signaling; also recorded: able to inhibit PD-1/PD-L1 mediated cell signaling | dose-dependent binding | 
3 | IALILEP(Sar)CCQERA (IALILEP[Sar]CCQERA; cysteine pairing not given here) [RLS-0133*] | increase in luminescence indicative of inhibition of PD-1/PD-L1 inhibitory signaling; also recorded: able to inhibit PD-1/PD-L1 mediated cell signaling |  |  |  |  | dose-dependently inhibited complement activation; also recorded: inhibit complement activation
4 | IALILEP(Sar)dCCQERRA (IALILEP[Sar][dC]CQERRA; cysteine pairing not given here) [RLS-0127*] | increase in luminescence indicative of inhibition of PD-1/PD-L1 inhibitory signaling; also recorded: able to inhibit PD-1/PD-L1 mediated cell signaling |  |  |  | bound C1q in a dose-dependent manner; also recorded: binds C1q | dose-dependently inhibited complement activation; also recorded: very similar levels of inhibition to the positive control; also recorded: inhibit complement activation
